Assay results as given in PubChem BioAssay AID1963980 (Molecular Pharmacology Branch, DTP, NCI, 2024).
Where “and” joins values, the source holds several entries; their conditions need not be identical. Identical values can stand only once.

Each compound was assayed on 475296-252-R-J1-PDC spheroid viability (assay: Anticancer human tumor 475296-252-R-J1-PDC patient-derived rectal carcinoma cell line growth inhibition [PI3K]). Details: compound 0.000316 µM; active compounds read low; spheroids with HUVEC and MSC.
From the text: Combinatorial screen of targeted agents with the PI3K inhibitors inavolisib, alpelisib, duvelisib, and copanlisib in multi-cell type tumor spheroids
A high-throughput screen of multi-cell type tumor spheroids was designed to identify active combinations of targeted small molecules and PI3K pathway inhibitors. Complex spheroids include a stromal component modeled by human endothelial cells (HUVEC) and fibroblasts modeled by human mesenchymal stem cells (MSCs). The concentration ranges selected for each drug and investigational agent were based upon clinically achievable concentrations if the clinical Cmax of the agent was known.
Compounds. The drugs and investigational agents: inavolisib (NSC800729), alpelisib (NSC765974), duvelisib (NSC772469), copanlisib (NSC816437), ipatasertib (NSC767898), afuresertib (NSC778305), talazoparib (NSC767125), sapanisertib (NSC764658), selumetinib (NSC741078), tovorafenib (DAY101, NSC766906), vemurafenib (NSC761431), ravoxertinib (NSC781343), sotorasib (NSC818433), MRTX1133 (NSC 836407), abemaciclib (NSC 768073), palbociclib (NSC758247), venetoclax (NSC 766270), SY5609 (NSC837396), enzalutamide (NSC755605), and darolutamide (NSC825331), were obtained from the National Cancer Institute (NCI) Developmental Therapeutics Program Chemical Repository. The FDA-approved anticancer drug set is available from the NCI Developmental Therapeutics Program. […] The stock solutions were prepared in dimethyl sulfoxide (DMSO, Sigma-Aldrich, St. Louis, MO, cat. D2650) at 800-fold the tested concentration and stored at -70 degrees C prior to their use. All drugs and investigational agents were tested over a range starting from a high concentration at or near the clinical Cmax and decreasing in half-log increments. If the clinical Cmax for an agent had not been determined, the highest concentration tested was 10 microM.
Cell Culture. All cells were maintained in an incubator at 37 degrees C and 5% CO2 with 95% humidity. The PDC lines were cultured according to standard operating procedures established by the NCI PDMR (https://pdmr.cancer.gov/sops/default.htm). All PDCs were thawed and cultured in Matrigel-coated flasks prepared with a working solution of 1X Ham's F-12 nutrient mix, without supplementation (Invitrogen, Waltham, MA, cat. 11765054), 100 U/mL penicillin-streptomycin (Invitrogen, cat. 15140122), and 2.5% Matrigel (Corning Inc., Corning, NY, cat. 354248) for the first three passages. The 354836-022-R-J1-PDC, 475296-252-R-J1-PDC, and 997726-040-R-J2-PDC lines were cultured in 6A media, which includes advanced DMEM/F-12 (Thermo Fisher Scientific, cat. 12634028), 10 mM HEPES (Thermo Fisher Scientific, cat. 15630080), 1X GlutaMAX supplement (Thermo Fisher Scientific, cat. 35050061), 0.1 mg/mL primocin (InvivoGen, San Diego, CA, cat. ant-pm-2), 10% defined fetal bovine serum, heat inactivated (HyClone Laboratories Inc., Logan, UT, cat. SH30070.03HI), 50% L-WRN conditioned media (ATCC, cat. CRL-3276), 1.25 mM N-Acetyl-L-cysteine (Sigma-Aldrich, cat. A9165), 10 mM nicotinamide (Sigma-Aldrich, cat. N0636), 1X B-27 supplement (Thermo Fisher Scientific, cat. 17504044), 1X N-2 supplement (Thermo Fisher Scientific, cat. 17502048), and 10 microM Y-27632 dihydrochloride (Tocris Bioscience, Bristol, United Kingdom, cat. 1254). The 624824-186-R-J2-PDC line was cultured in 6C/Colon 1B media, which includes all 6A media components plus 50 ng/mL human EGF recombinant protein (Thermo Fisher Scientific, cat. PHG0311). […]
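Note: spheroids exposed to agents for seven days before readout.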

Row | SMILES | viability, T/C
1 | CC(=O)c1c(C)c2cnc(Nc3ccc(N4CCNCC4)cn3)nc2n(C2CCCC2)c1=O | 106% [middle of 4 runs]
2 | CC(C)n1nc(-c2ccc3oc(N)nc3c2)c2c(N)ncnc21 | 99.6% [middle of 4 runs]
3 | Cn1ncnc1[C@H]1c2n[nH]c(=O)c3cc(F)cc(c23)N[C@@H]1c1ccc(F)cc1 | 114% and 102% (2×) and 106%

Same assay, conditions: compound 0.001 µM; active compounds read low; spheroids with HUVEC and MSC

Row | SMILES | viability, T/C
4 | CC(=O)c1c(C)c2cnc(Nc3ccc(N4CCNCC4)cn3)nc2n(C2CCCC2)c1=O | 98.3% [middle of 4 runs]
5 | CC(C)n1nc(-c2ccc3oc(N)nc3c2)c2c(N)ncnc21 | 94.3% [middle of 4 runs]
6 | Cn1ncnc1[C@H]1c2n[nH]c(=O)c3cc(F)cc(c23)N[C@@H]1c1ccc(F)cc1 | 104% [middle of 4 runs]

Same assay, conditions: compound 0.00316 µM; active compounds read low; spheroids with HUVEC and MSC

Row | SMILES | viability, T/C
7 | CC(=O)c1c(C)c2cnc(Nc3ccc(N4CCNCC4)cn3)nc2n(C2CCCC2)c1=O | 98% [middle of 4 runs]
8 | CC(C)n1nc(-c2ccc3oc(N)nc3c2)c2c(N)ncnc21 | 93.9% [middle of 4 runs]
9 | CC(Nc1ccc2c(c1)OCCn1cc(N3C(=O)OCC3C(F)F)nc1-2)C(N)=O (stereo unspecified) | 98.8% [middle of 8 runs]
10 | CCN1CCN(Cc2ccc(Nc3ncc(F)c(-c4cc(F)c5nc(C)n(C(C)C)c5c4)n3)nc2)CC1 | 101% [middle of 4 runs]
11 | COc1c(OCCCN2CCOCC2)ccc2c3n(c(=NC(=O)c4cnc(N)nc4)nc12)CCN3 | 103% [middle of 8 runs]
12 | Cn1ncnc1[C@H]1c2n[nH]c(=O)c3cc(F)cc(c23)N[C@@H]1c1ccc(F)cc1 | 96.1% [middle of 4 runs]

Same assay, conditions: compound 0.00949 µM; active compounds read low; spheroids with HUVEC and MSC

Row | SMILES | viability, T/C
13 | Cn1cnc2c(F)c(Nc3ccc(Br)cc3Cl)c(C(=O)NOCCO)cc21 | 97.5% [middle of 4 runs]

Same assay, conditions: compound 0.01 µM; active compounds read low; spheroids with HUVEC and MSC

Row | SMILES | viability, T/C
14 | CC(=O)c1c(C)c2cnc(Nc3ccc(N4CCNCC4)cn3)nc2n(C2CCCC2)c1=O | 98.9% [middle of 4 runs]
15 | CC(Nc1ccc2c(c1)OCCn1cc(N3C(=O)OCC3C(F)F)nc1-2)C(N)=O (stereo unspecified) | 96.9% [middle of 8 runs]
16 | CCN1CCN(Cc2ccc(Nc3ncc(F)c(-c4cc(F)c5nc(C)n(C(C)C)c5c4)n3)nc2)CC1 | 100% [middle of 4 runs]
17 | COc1c(OCCCN2CCOCC2)ccc2c3n(c(=NC(=O)c4cnc(N)nc4)nc12)CCN3 | 97.3% [middle of 8 runs]
18 | Cn1ncnc1[C@H]1c2n[nH]c(=O)c3cc(F)cc(c23)N[C@@H]1c1ccc(F)cc1 | 93.1% [middle of 4 runs]

Same assay, conditions: compound 0.03 µM; active compounds read low; spheroids with HUVEC and MSC

Row | SMILES | viability, T/C
19 | Cn1cnc2c(F)c(Nc3ccc(Br)cc3Cl)c(C(=O)NOCCO)cc21 | 91.9% [middle of 4 runs]

Same assay, conditions: compound 0.0316 µM; active compounds read low; spheroids with HUVEC and MSC

Row | SMILES | viability, T/C
20 | CC(=O)c1c(C)c2cnc(Nc3ccc(N4CCNCC4)cn3)nc2n(C2CCCC2)c1=O | 108% [middle of 4 runs]
21 | CC(C)NCC(C(=O)N1CCN(c2ncnc3c2C(C)CC3O)CC1)c1ccc(Cl)cc1 (stereo unspecified) | 102% [middle of 4 runs]
22 | CC(Cn1ccc(-c2ccc(C#N)c(Cl)c2)n1)NC(=O)c1cc(C(C)O)[nH]n1 (stereo unspecified) | 105% [middle of 4 runs]
23 | CC(Nc1ccc2c(c1)OCCn1cc(N3C(=O)OCC3C(F)F)nc1-2)C(N)=O (stereo unspecified) | 98.1% [middle of 8 runs]
24 | CC(Nc1ncnc2nc[nH]c12)c1cc2cccc(Cl)c2c(=O)n1-c1ccccc1 (stereo unspecified) | 102% [middle of 8 runs]
25 | CC1(C)CCC(CN2CCN(c3ccc(C(=O)NS(=O)(=O)c4ccc(NCC5CCOCC5)c([N+](=O)[O-])c4)c(Oc4cnc5[nH]ccc5c4)c3)CC2)=C(c2ccc(Cl)cc2)C1 | 97.2% and 102% (2×) and 99.9%
26 | CC1(C)CCC(Nc2ncc(C(F)(F)F)c(-c3c[nH]c4c(P(C)(C)=O)c(C#N)ccc34)n2)CN1 (stereo unspecified) | 90.7% [middle of 4 runs]
27 | CCCS(=O)(=O)Nc1ccc(F)c(C(=O)c2c[nH]c3ncc(-c4ccc(Cl)cc4)cc23)c1F | 101% [middle of 4 runs]
28 | CCN1CCN(Cc2ccc(Nc3ncc(F)c(-c4cc(F)c5nc(C)n(C(C)C)c5c4)n3)nc2)CC1 | 95.7% [middle of 4 runs]
29 | COc1c(OCCCN2CCOCC2)ccc2c3n(c(=NC(=O)c4cnc(N)nc4)nc12)CCN3 | 90.7% [middle of 8 runs]
30 | C[C@@H](NC(=O)c1ncnc(N)c1Cl)c1ncc(C(=O)Nc2cc(C(F)(F)F)c(Cl)cn2)s1 | 89.7% [middle of 4 runs]
31 | Cc1nc(NC(=O)N2CCCC2C(N)=O)sc1-c1ccnc(C(C)(C)C(F)(F)F)c1 (stereo unspecified) | 98.6% [middle of 8 runs]
32 | Cn1ncc(Cl)c1-c1cc(C(=O)NC(CN)Cc2cccc(F)c2)sc1Cl (stereo unspecified) | 85.6% [middle of 4 runs]
33 | Cn1nccc1Nc1nccc(-c2ccn(C(CO)c3ccc(Cl)c(F)c3)c(=O)c2)n1 (stereo unspecified) | 104% [middle of 4 runs]
34 | Cn1ncnc1[C@H]1c2n[nH]c(=O)c3cc(F)cc(c23)N[C@@H]1c1ccc(F)cc1 | 104% [middle of 4 runs]

Same assay, conditions: compound 0.0949 µM; active compounds read low; spheroids with HUVEC and MSC

Row | SMILES | viability, T/C
35 | Cn1cnc2c(F)c(Nc3ccc(Br)cc3Cl)c(C(=O)NOCCO)cc21 | 90.2% [middle of 4 runs]

Same assay, conditions: compound 0.1 µM; active compounds read low; spheroids with HUVEC and MSC

Row | SMILES | viability, T/C
36 | CC(=O)c1c(C)c2cnc(Nc3ccc(N4CCNCC4)cn3)nc2n(C2CCCC2)c1=O | 108% [middle of 4 runs]
37 | CC(C)NCC(C(=O)N1CCN(c2ncnc3c2C(C)CC3O)CC1)c1ccc(Cl)cc1 (stereo unspecified) | 105% [middle of 4 runs]
38 | CC(C)n1nc(-c2ccc3oc(N)nc3c2)c2c(N)ncnc21 | 63.1% [middle of 4 runs]
39 | CC(Cn1ccc(-c2ccc(C#N)c(Cl)c2)n1)NC(=O)c1cc(C(C)O)[nH]n1 (stereo unspecified) | 96.9% [middle of 4 runs]
40 | CC(Nc1ccc2c(c1)OCCn1cc(N3C(=O)OCC3C(F)F)nc1-2)C(N)=O (stereo unspecified) | 96.8% [middle of 8 runs]
41 | CC(Nc1ncnc2nc[nH]c12)c1cc2cccc(Cl)c2c(=O)n1-c1ccccc1 (stereo unspecified) | 96.3% [middle of 8 runs]
42 | CC1(C)CCC(CN2CCN(c3ccc(C(=O)NS(=O)(=O)c4ccc(NCC5CCOCC5)c([N+](=O)[O-])c4)c(Oc4cnc5[nH]ccc5c4)c3)CC2)=C(c2ccc(Cl)cc2)C1 | 97% [middle of 4 runs]
43 | CC1(C)CCC(Nc2ncc(C(F)(F)F)c(-c3c[nH]c4c(P(C)(C)=O)c(C#N)ccc34)n2)CN1 (stereo unspecified) | 98.6% [middle of 4 runs]
44 | CCCS(=O)(=O)Nc1ccc(F)c(C(=O)c2c[nH]c3ncc(-c4ccc(Cl)cc4)cc23)c1F | 95% [middle of 4 runs]
45 | CCN1CCN(Cc2ccc(Nc3ncc(F)c(-c4cc(F)c5nc(C)n(C(C)C)c5c4)n3)nc2)CC1 | 100% [middle of 4 runs]
46 | COc1c(OCCCN2CCOCC2)ccc2c3n(c(=NC(=O)c4cnc(N)nc4)nc12)CCN3 | 87% [middle of 8 runs]
47 | C[C@@H](NC(=O)c1ncnc(N)c1Cl)c1ncc(C(=O)Nc2cc(C(F)(F)F)c(Cl)cn2)s1 | 99.8% [middle of 4 runs]
48 | Cc1nc(NC(=O)N2CCCC2C(N)=O)sc1-c1ccnc(C(C)(C)C(F)(F)F)c1 (stereo unspecified) | 97.1% [middle of 8 runs]
49 | Cn1ncc(Cl)c1-c1cc(C(=O)NC(CN)Cc2cccc(F)c2)sc1Cl (stereo unspecified) | 88.6% [middle of 4 runs]
50 | Cn1nccc1Nc1nccc(-c2ccn(C(CO)c3ccc(Cl)c(F)c3)c(=O)c2)n1 (stereo unspecified) | 96.6% [middle of 4 runs]
51 | Cn1ncnc1[C@H]1c2n[nH]c(=O)c3cc(F)cc(c23)N[C@@H]1c1ccc(F)cc1 | 90.4% [middle of 4 runs]

Same assay, conditions: compound 0.3 µM; active compounds read low; spheroids with HUVEC and MSC

Row | SMILES | viability, T/C
52 | Cn1cnc2c(F)c(Nc3ccc(Br)cc3Cl)c(C(=O)NOCCO)cc21 | 80.8% [middle of 4 runs]

Same assay, conditions: compound 0.316 µM; active compounds read low; spheroids with HUVEC and MSC

Row | SMILES | viability, T/C
53 | CC(C)NCC(C(=O)N1CCN(c2ncnc3c2C(C)CC3O)CC1)c1ccc(Cl)cc1 (stereo unspecified) | 89.5% [middle of 4 runs]
54 | CC(Cn1ccc(-c2ccc(C#N)c(Cl)c2)n1)NC(=O)c1cc(C(C)O)[nH]n1 (stereo unspecified) | 99% (2×) and 93.4% and 120%
55 | CC(Nc1ccc2c(c1)OCCn1cc(N3C(=O)OCC3C(F)F)nc1-2)C(N)=O (stereo unspecified) | 91.3% [middle of 8 runs]
56 | CC(Nc1ncnc2nc[nH]c12)c1cc2cccc(Cl)c2c(=O)n1-c1ccccc1 (stereo unspecified) | 90.4% [middle of 8 runs]
